Source: PMC5694373 (European journal of pharmaceutical sciences : official …, 2017)
“And” between values parts separate entries of the source, which are not always exact repeats. Equal entries are not always repeated.

How the values were obtained:
[1] = molecular target: neuraminidase of oseltamivir-resistant pandemic 2009 H1N1 A/Hong Kong/2369/2009 [H275Y] (HK/09-H275Y) (Influenza A virus, UniProt C6KQ69); assay: biochemical; assay type: biochemical
[2] = tested on: mixture of 99% MX/09 and 1% oseltamivir-resistant HK/09-H275Y; assay type: cell-based, influenza A virus H1N1
[3] = tested on: oseltamivir-resistant HK/09-H275Y influenza; assay type: cell-based, influenza A virus H1N1
[4] = tested on: HK/09-H275Y subpopulation in 99% MX/09 + 1% HK/09-H275Y infection; assay type: cell-based, influenza A virus H1N1
[5] = molecular target: neuraminidase of zanamivir-resistant seasonal 2008 H1N1 A/Brazil/1633/2008 [Q136K] (BZ/08-Q136K) (Influenza A virus, UniProt A4GBY0, Q136K); assay type: biochemical

Compound	IC50 [1] [pM]	viral burden lower than the no-treatment control [2]	reduction of peak viral titers [3]	IC50 values (95% Confidence Interval) [1]	HK/09-H275Y subpopulations [4]	effect on viral burden relative to no-treatment control [2]	IC50 values (95% Confidence Interval) [5]
CC(=O)N[C@H]1[C@H]([C@H](O)[C@H](O)CO)OC(C(=O)O)=C[C@@H]1N=C(N)N [Zanamivir, zanamivir]	7.22	at least 2 log10	approximately 4 log10 PFU/ml	–	–	–	–
Oseltamivir carboxylate	–	–	–	15.30 (10.16 – 20.44) ng/ml	76% and 83%	peak viral load equivalent to that of the no-treatment control by 72 h	0.0028 (0.0005 – 0.0051) ng/ml
